Reference: patent publication US9878977B2, “N-((3,4,5-trimethoxystyryl)aryl)cinnamamide compounds as potential anticancer agents and process for the preparation thereof” (COUNCIL OF SCIENTIFIC & INDUSTRIAL RESEARCH, priority 2014, dated 2018)
Where two headings read alike, the source gives them in different places.

How the values were obtained:
[1] = tested on: MAIPA-CA-2; assay: SRB anti-proliferative assay, MAIPA-CA-2; type: cell-based, Human; details: read-out: GI50 MAIPA-CA-2
Method: (§1) The synthesized N-(3,4,5-trimethoxystyryl)aryl)cinnamamides were evaluated for their anti-proliferative activity in selected human cancer cell lines of breast cancer (MCF-7), prostate cancer (DU-145), lung cancer (Hop-62), cervical cancer (Hela), leukemia (K562), ovarian cancer (SK-OV-3), colon cancer (Colo-205), pancreatic (MAIPA-CA-2) by using sulforhodamine B (SRB) method (Vichai, V.; Kirtikara, K. Nat. Protoc. 2006, 1, 1112). […] CA-4 was used as the reference compound.

[2] = tested on: Hela; assay: SRB anti-proliferative assay, Hela; type: cell-based, Human; details: read-out: GI50 Hela
Method: as §1

[3] = tested on: K562; assay: SRB anti-proliferative assay, K562; type: cell-based, Human
Method: as §1

[4] = tested on: Colo-205; assay: SRB anti-proliferative assay, Colo-205; type: cell-based, Human
Method: as §1

[5] = tested on: DU-145; assay: SRB anti-proliferative assay, DU-145; type: cell-based, Human
Method: as §1

[6] = tested on: SK-OV-3; assay: SRB anti-proliferative assay, SK-OV-3; type: cell-based, Human
Method: as §1

[7] = tested on: MCF-7; assay: SRB anti-proliferative assay, MCF-7; type: cell-based, Human
Method: as §1

[8] = tested on: Hop-62; assay: SRB anti-proliferative assay, Hop-62; type: cell-based, Human
Method: as §1

[9] = tested on: tubulin; details: reported in J. Med. Chem. 2008, 51, 6211; cited from earlier work
[10] = Homo sapiens, K562, read-out: GI50 K562
[11] = Homo sapiens, COLO 205, read-out: GI50 Colo-205
[12] = Homo sapiens, DU-145, read-out: GI50 DU-145
[13] = Homo sapiens, SK-OV-3, read-out: GI50 SK-OV-3
[14] = Homo sapiens, MCF7, read-out: GI50 MCF-7
[15] = Homo sapiens, HOP-62, read-out: GI50 Hop-62
[16] = Human pancreatic, concentration of drug causing 50% inhibition of cell growth
[17] = Human cervical cancer, concentration of drug causing 50% inhibition of cell growth
[18] = K562, Human leukemia, concentration of drug causing 50% inhibition of cell growth, read-out: GI50 K562
[19] = COLO 205, Human colon cancer, concentration of drug causing 50% inhibition of cell growth, read-out: GI50 Colo-205
[20] = DU-145, Human prostate cancer, concentration of drug causing 50% inhibition of cell growth, read-out: GI50 DU-145
[21] = SK-OV-3, Human ovarian cancer, concentration of drug causing 50% inhibition of cell growth, read-out: GI50 SK-OV-3
[22] = MCF7, Human breast cancer, concentration of drug causing 50% inhibition of cell growth, read-out: GI50 MCF-7
[23] = HOP-62, Human lung cancer, concentration of drug causing 50% inhibition of cell growth, read-out: GI50 Hop-62

SMILES	GI50 ([1]; Homo sapiens) [nM]	GI50 ([2]; Homo sapiens) [nM]	GI50 [3, 10] [nM]	GI50 [4, 11] [nM]	GI50 [5, 12] [nM]	GI50 [6, 13] [nM]	GI50 [7, 14] [nM]	GI50 [8, 15] [nM]	GI50 [1, 16] [nM]	GI50 [2, 17] [nM]	GI50 [3, 18] [nM]	GI50 [4, 19] [nM]	GI50 [5, 20] [nM]	GI50 [6, 21] [nM]	GI50 [7, 22] [nM]	GI50 [8, 23] [nM]	inhibits tubulin polymerization, compared with CA-4 [9]
COc1ccc(C=Cc2cc(OC)c(OC)c(OC)c2)c(NC(=O)/C=C/c2ccc(F)c(F)c2)c1O [Compound 20aa, (E)-3-(3,4-Difluorophenyl)-N-(2-hydroxy-3-methoxy-6-(3,4,5-trimethoxystyryl)phenyl)acrylamide]	74000	29200	99	74900	45	29800	31	43600	–	–	–	–	–	–	–	–	–
COc1ccc(C=Cc2cc(OC)c(OC)c(OC)c2)c(NC(=O)/C=C/c2cc(OC)c(OC)c(OC)c2)c1O [Compound 20ab, (E)-N-(2-Hydroxy-3-methoxy-6-(3,4,5-trimethoxystyryl)phenyl)-3-(3,4,5-trimethoxyphenyl)acrylamide]	64500	14900	28000	76000	95	20900	79	24800	–	–	–	–	–	–	–	–	–
COc1cccc(/C=C/C(=O)Nc2c(C=Cc3cc(OC)c(OC)c(OC)c3)ccc(OC)c2O)c1 [Compound 20f, (E)-N-(2-Hydroxy-3-methoxy-6-(3,4,5-trimethoxystyryl)phenyl)-3-(3-methoxyphenyl)acrylamide]	–	–	–	–	–	–	–	–	93900	18100	98	> 100000	> 100000	17600	59500	65400	–
COc1ccc(C=Cc2cc(OC)c(OC)c(OC)c2)c(NC(=O)/C=C/c2cccc(O)c2)c1O [Compound 20g, (E)-N-(2-Hydroxy-3-methoxy-6-(3,4,5-trimethoxystyryl)phenyl)-3-(3-hydroxyphenyl)acrylamide]	98	94.9	94	13400	70	97	63	82	–	–	–	–	–	–	–	–	–
C#CCOc1cccc(/C=C/C(=O)Nc2c(C=Cc3cc(OC)c(OC)c(OC)c3)ccc(OC)c2O)c1 [Compound 20h, (E)-N-(2-Hydroxy-3-methoxy-6-(3,4,5-trimethoxystyryl)phenyl)-3-(3-(prop-2-ynyloxy)phenyl)acrylamide]	> 100000	> 100000	> 100000	> 100000	96400	> 100000	11600	> 100000	–	–	–	–	–	–	–	–	–
C=CCOc1cccc(/C=C/C(=O)Nc2c(C=Cc3cc(OC)c(OC)c(OC)c3)ccc(OC)c2O)c1 [Compound 20i, (E)-3-(3-(Allyloxy)phenyl)-N-(2-hydroxy-3-methoxy-6-(3,4,5-trimethoxystyryl)phenyl)acrylamide]	–	–	–	–	–	–	–	–	98	78.7	91	18000	85	82	83	60	–
COc1ccc(C=Cc2cc(OC)c(OC)c(OC)c2)c(NC(=O)/C=C/c2ccc(C(F)(F)F)cc2)c1O [Compound 20n, (E)-N-(2-Hydroxy-3-methoxy-6-(3,4,5-trimethoxystyryl)phenyl)-3-(4-(trifluoromethyl)phenyl)acrylamide]	> 100000	> 100000	58000	> 100000	> 100000	> 100000	83700	> 100000	–	–	–	–	–	–	–	–	–
COc1ccc(C=Cc2cc(OC)c(OC)c(OC)c2)c(NC(=O)/C=C/c2ccc([N+](=O)[O-])cc2)c1O [Compound 20o, (E)-N-(2-Hydroxy-3-methoxy-6-(3,4,5-trimethoxystyryl)phenyl)-3-(4-nitrophenyl)acrylamide]	40800	15700	97	10300	85	17000	72	61	–	–	–	–	–	–	–	–	–
COc1ccc(C=Cc2cc(OC)c(OC)c(OC)c2)c(NC(=O)/C=C/c2ccc(Cl)cc2)c1O [Compound 20q, (E)-3-(4-Chlorophenyl)-N-(2-hydroxy-3-methoxy-6-(3,4,5-trimethoxystyryl)phenyl)acrylamide]	–	–	–	–	–	–	–	–	> 100000	38800	24900	> 100000	54100	62600	55500	79400	–
COc1ccc(C=Cc2cc(OC)c(OC)c(OC)c2)c(NC(=O)/C=C/c2ccc(F)cc2)c1O [Compound 20r, (E)-3-(4-Fluorophenyl)-N-(2-hydroxy-3-methoxy-6-(3,4,5-trimethoxystyryl)phenyl)acrylamide]	–	–	–	–	–	–	–	–	78100	24000	23500	67600	83	47500	66	43000	–
COc1ccc(/C=C/C(=O)Nc2c(C=Cc3cc(OC)c(OC)c(OC)c3)ccc(OC)c2O)cc1OC [Compound 20s, (E)-3-(3,4-Dimethoxyphenyl)-N-(2-hydroxy-3-methoxy-6-(3,4,5-trimethoxystyryl)phenyl)acrylamide]	–	–	–	–	–	–	–	–	29900	7500	94	99	60	99	56	90	–
COc1cc(/C=C/C(=O)Nc2c(C=Cc3cc(OC)c(OC)c(OC)c3)ccc(OC)c2O)ccc1O [Compound 20t, (E)-N-(2-Hydroxy-3-methoxy-6-(3,4,5-trimethoxystyryl)phenyl)-3-(4-hydroxy-3-methoxyphenyl)acrylamide]	–	–	–	–	–	–	–	–	98	90	93	98	72	96	60	79	–
COc1cc(/C=C/C(=O)Nc2c(C=Cc3cc(OC)c(OC)c(OC)c3)ccc(OC)c2O)ccc1[N+](=O)[O-] [Compound 20u, (E)-N-(2-Hydroxy-3-methoxy-6-(3,4,5-trimethoxystyryl)phenyl)-3-(3-methoxy-4-nitrophenyl)acrylamide]	–	–	–	–	–	–	–	–	23500	99	96	96	75	7900	95	84	–
COc1cc(/C=C/C(=O)Nc2c(C=Cc3cc(OC)c(OC)c(OC)c3)ccc(OC)c2O)ccc1N [Compound 20v, (E)-3-(4-Amino-3-methoxyphenyl)-N-(2-hydroxy-3-methoxy-6-(3,4,5-trimethoxystyryl)phenyl)acrylamide]	–	–	–	–	–	–	–	–	97	90	82	86	85	94	74	35	–
COc1ccc(/C=C/C(=O)Nc2c(C=Cc3cc(OC)c(OC)c(OC)c3)ccc(OC)c2O)cc1O [Compound 20x, (E)-N-(2-hydroxy-3-methoxy-6-(3,4,5-trimethoxystyryl)phenyl)-3-(3-hydroxy-4-methoxyphenyl)acrylamide]	–	–	–	–	–	–	–	–	46300	15900	23700	> 100000	117	1800	95	17100	–
COc1ccc(/C=C/C(=O)Nc2c(C=Cc3cc(OC)c(OC)c(OC)c3)ccc(OC)c2O)cc1[N+](=O)[O-] [Compound 20y, (E)-N-(2-Hydroxy-3-methoxy-6-(3,4,5-trimethoxystyryl)phenyl)-3-(4-methoxy-3-nitrophenyl)acrylamide]	–	–	–	–	–	–	–	–	> 100000	49200	46800	> 100000	64700	52600	19400	71300	–
COc1ccc(/C=C/C(=O)Nc2c(C=Cc3cc(OC)c(OC)c(OC)c3)ccc(OC)c2O)cc1N [Compound 20z, (E)-3-(3-Amino-4-methoxyphenyl)-N-(2-hydroxy-3-methoxy-6-(3,4,5-trimethoxystyryl)phenyl)acrylamide]	–	–	–	–	–	–	–	–	14300	91	89	89	79	97	50	44	–
COc1cc(/C=C\c2ccc(OC)c(N)c2)cc(OC)c1 [Compound S3, (Z)-5-(3,5-dimethoxystyryl)-2-methoxyaniline]	–	–	–	–	–	–	–	–	–	–	–	–	–	–	–	–	stronger than CA-4 by five folds
